Data: article PMC6736568, “Discovery of Novel Anti-cryptosporidial Activities From Natural Products by in vitro High-Throughput Phenotypic Screening” (Frontiers in Microbiology, 2019)
Where two headings read alike, the source gives them in different places.

What was measured:
[1] = test system: HCT-8 host cells (Hs18S)
[2] = test system: Cryptosporidium parvum; test: qRT-PCR assay of the growth of C. parvum in vitro in HCT-8 host cells (primary and secondary screening, EC50); type: cell-based; conditions: Cryptosporidium parvum, HCT-8; for inhibition at 10 µM: primary screening at 10 uM, read-out: Inhibition (%); for inhibition at 3.3 µM: secondary screening at 3.3 uM, read-out: % Inhibition (3.3 uM)
[3] = in vitro; conditions: for cytotoxicity at 41 h, 10 µM: human
[4] = primary screening at 10 uM, treated vs control

| SMILES | Hs18S ΔCT ([1]; human, 41 h, 10 μM) | inhibition at 10 µM [2] [%] | cytotoxicity at 41 h, 10 µM [3] [%] | inhibition at 3.3 µM [2] [%] | Hs18S ΔCT [1, 4] | cytotoxicity at 10 µM [3] [%] |
| --- | --- | --- | --- | --- | --- | --- |
| CC(=O)O[C@H]1CC[C@@]2(C)[C@@H](CC[C@@H]3[C@@H]2CC(=O)[C@]2(C)[C@@H]4[C@H](C[C@@H]32)O[C@]2(CC[C@@H](C)CO2)[C@H]4C)C1 [HECOGENIN ACETATE] | -0.05 | 6.66 | -3.7 | – | – | – |
| NC[C@H]1O[C@H](O[C@H]2[C@H](O)[C@@H](O[C@H]3O[C@H](CO)[C@@H](O)[C@H](N)[C@H]3O)[C@H](N)C[C@@H]2N)[C@H](N)C[C@@H]1O [TOBRAMYCIN] | -0.49 | 4.08 | -40.8 | – | – | – |
| COc1ccc(-c2cc(=O)c3c(O)c(OC)c(O[C@@H]4O[C@H](CO[C@@H]5O[C@@H](C)[C@H](O)[C@@H](O)[C@H]5O)[C@@H](O)[C@H](O)[C@H]4O)cc3o2)cc1 [PECTOLINARIN] | 1.99 | -21 | 74.8 | – | – | – |
| COc1cc(-c2coc3cc(O[C@@H]4O[C@H](CO)[C@@H](O)[C@H](O)[C@H]4O)c(OC)c(O)c3c2=O)cc(O)c1OC [IRIDIN] | -0.14 | -13.3 | -10 | – | – | – |
| C=CCc1ccc(O)c(OC)c1 [EUGENOL] | -0.36 | 3.09 | -28.5 | – | – | – |
| O=C1C=C2CC3(O)COc4c(ccc(O)c4O)C3=C2C=C1O (stereo not drawn) [HEMATEIN] | 0.13 | 10.1 | 8.6 | – | – | – |
| COC(=O)C[C@H]1C(C)(C)C(=O)[C@@H]2CC3=C4CC(=O)O[C@@H](c5ccoc5)[C@]4(C)CC[C@@H]3[C@@]1(C)C2=O [MEXICANOLIDE] | -0.17 | 31.5 | -12.3 | – | – | – |
| CC(C)=CCC[C@@H](C)[C@@H]1CC[C@]2(C)C3=C(CC[C@@]12C)[C@@]1(C)CC[C@H](O)C(C)(C)[C@@H]1CC3 [EUPHOL] | -0.29 | -2.84 | -22.5 | – | – | – |
| C[C@@]12C[C@@]3(O)O[C@@H](O1)[C@]1(COC(=O)c4ccccc4)[C@H]3C[C@@]12O[C@@H]1O[C@H](CO)[C@@H](O)[C@H](O)[C@H]1O [PEONIFLORIN] | -0.11 | -19.9 | -7.6 | – | – | – |
| O=c1cc(-c2ccc(O)cc2)oc2cc(O)cc(O)c12 [APIGENIN] | 0.06 | -44.6 | 3.9 | – | – | – |
| COC(=O)[C@H]1[C@H]2C[C@@H]3c4[nH]c5cc(OC)ccc5c4CCN3C[C@H]2C[C@@H](OC(=O)c2cc(OC)c(OC)c(OC)c2)[C@@H]1OC [RESERPINE] | 0.50 | 87 | 29.4 | 24 | – | – |
| C=C(C)c1cc2cc(C(C)=O)c(O)cc2o1 [EUPARIN] | – | 19 | – | – | 0.23 | 14.6 |
| CCOc1ccc(C(=O)c2ccc(OC)c(O)c2O)cc1 [2,3-DIHYDROXY-4-METHOXY-4'-ETHOXYBENZOPHENONE] | -0.12 | 39 | -8.6 | – | – | – |
| C=CCSCC=C [DIALLYL SULFIDE] | -0.01 | 19.6 | -0.8 | – | – | – |
| COC1=C(O)C(=O)c2c(cc3oc(C(C)=O)c(O)c3c2O)C1=O [RHODOCLADONIC ACID] | -0.03 | 1.58 | -2.1 | – | – | – |
| C[C@H]1[C@H](C)CC[C@]2(C(=O)O)CC[C@]3(C)C(=CC[C@@H]4[C@@]5(C)C[C@@H](O)[C@H](O)[C@@](C)(CO)[C@@H]5[C@H](O)C[C@]43C)[C@H]12 [MADECASSIC ACID] | – | -20.3 | – | – | -0.16 | -11.7 |
| CC(=O)N[C@@H](CC(=O)N[C@@H](CCC(=O)O)C(=O)O)C(=O)O [SPAGLUMIC ACID] | – | 31.3 | – | – | 0.18 | 11.9 |
| CCc1ccc2c(O)c3c(cc2c1C(=O)OC)C(=O)c1c(O)ccc(O)c1C3=O [BISANHYDRORUTILANTINONE] | -0.16 | 24.5 | -12 | – | – | – |
| Cc1cc2nc3c(=O)[nH]c(=O)nc-3n(C[C@H](O)[C@H](O)[C@H](O)CO)c2cc1C [RIBOFLAVIN] | 0.02 | -26.6 | 1.1 | – | – | – |
| Nc1nc2ncc(CNc3ccc(C(=O)N[C@@H](CCC(=O)O)C(=O)O)cc3)nc2c(=O)[nH]1 [FOLIC ACID] | 0.02 | 3.63 | 1.3 | – | – | – |

| SMILES | Hs18S ΔCT ([1]; human, 41 h, 10 μM) | inhibition at 10 µM [2] [%] | cytotoxicity at 41 h, 10 µM [3] [%] | inhibition at 3.3 µM [2] [%] | Hs18S ΔCT [1, 4] | cytotoxicity at 10 µM [3] [%] |
| --- | --- | --- | --- | --- | --- | --- |
| Oc1cc(O)c2c(c1)O[C@H](c1ccc(O)c(O)c1)[C@@H](O)C2 [CIANIDANOL] | -0.20 | 2 | -14.9 | – | – | – |
| C[C@@H]1C(=O)O[C@H]2[C@H]1CC[C@@]1(C)C=CC(=O)[C@@]3(C)O[C@@]213 [EPOXY (4,5alpha)-4,5-DIHYDROSANTONIN] | – | 29.7 | – | – | -0.03 | -1.8 |
| Cc1cc(O)cc(O)c1C(=O)O [ORSELLINIC ACID] | – | 37.5 | -19.3 | – | -0.25 | – |
| COc1ccc(-c2cc(=O)c3c(OC)c(OC)c(OC)c(OC)c3o2)cc1OC [NOBILETIN] | 0.26 | 94.6 | 16.2 | -25 | – | – |
| CC(C)=CCC1=C(O)C(=O)c2ccccc2C1=O [LAPACHOL] | -0.60 | 91.3 | -52 | -98 | – | – |
| C=CC(C1=CC(=O)C(OC)=CC1=O)c1ccccc1 (stereo not drawn) [4-METHOXYDALBERGIONE] | -0.03 | -28.5 | -2.3 | – | – | – |
| CC(C)[C@@H]1CC[C@@H](C)CC1=O [MENTHONE] | -0.20 | 28.9 | -14.5 | – | – | – |
| CCOC(=O)CCCCCCCCCCCCC1C=CCC1 (stereo not drawn) [CHAULMOOGRIC ACID, ETHYL ESTER] | -0.15 | -0.95 | -10.8 | – | – | – |
| CC(=O)Oc1ccc(/C=C/c2cc(OC(C)=O)cc(OC(C)=O)c2)cc1 [TRIACETYLRESVERATROL] | – | -64.8 | – | – | 0.19 | 12.4 |
| O=C(/C=C/c1ccccc1)c1ccc(O)cc1 [4'-HYDROXYCHALCONE] | 0.33 | 9.45 | 20.5 | – | – | – |
| COc1cc(O)c2c(=O)c(O)c(-c3ccccc3)oc2c1 [IZALPININ] | 0.18 | 18.4 | 11.5 | – | – | – |
| O=C(CCc1ccc(O)cc1)c1c(O)cc(O)cc1O [PHLORETIN] | -0.15 | -5.73 | -10.8 | – | – | – |
| CC(C)CCC[C@@H](C)[C@H]1CC[C@H]2[C@@H]3CC=C4C[C@@H](O)CC[C@]4(C)[C@H]3CC[C@]12C [CHOLESTEROL] | -0.05 | -26.8 | – | – | – | -3.8 |
| CC1=C2C(=CO[C@H](C)[C@H]2C)C(O)=C(C(=O)O)C1=O [CITRININ] | – | 8.51 | – | – | 0.13 | 8.3 |
| C[C@H](CCC(=O)O)[C@H]1CC[C@H]2[C@@H]3CC[C@@H]4C[C@H](O)CC[C@]4(C)[C@H]3CC[C@]12C [LITHOCHOLIC ACID] | 0.65 | -55.8 | 36.1 | – | – | – |
| COc1ccc2c(c1)OC/C(=C/c1ccc(OC)c(OC)c1)C2=O [SAPPANONE A TRIMETHYL ETHER] | – | 3.07 | – | – | 0.23 | 14.7 |
| CC1/C(=N/O)C[C@@H]2C[C@H]1C2(C)C (stereo partly drawn) [3-PINANONE OXIME] | 0.02 | -6.18 | 1.5 | – | – | – |
| CN(C)Cc1c[nH]c2ccccc12 [GRAMINE] | – | -43.9 | -33.5 | – | -0.42 | – |
| CC(C)=CCC/C(C)=C/CC/C(C)=C/CC/C(C)=C/CC1=C(C)C(=O)c2ccccc2C1=O [MENAQUINONE-4] | 0.06 | -13.8 | 4.1 | – | – | – |
| Nc1ncnc2c1ncn2[C@H]1C[C@H](O)[C@@H](CO)O1 [DEOXYADENOSINE] | -0.35 | 44.5 | -27.3 | – | – | – |
